According to patent US20240158446A1, “CYCLIC COMPOUND HAVING SELECTIVE INHIBITORY ACTION ON KRAS OVER HRAS AND NRAS” (CHUGAI SEIYAKU KABUSHIKI KAISHA, priority 2021, published 2024):

Columns and labels:
[1] = target: GDP-bound HRAS wild-type protein (Homo sapiens, UniProt P01112); assay: Binding to HRAS by surface plasmon resonance (SPR), Single Cycle Kinetics; conditions: ratio of KD for GDP-bound HRAS wild-type protein to KD for KRAS, SPR
[2] = test system: human lung cancer strain NCI-H441; assay: cells; conditions: NCI-H441, 96 h, read-out: NCI-H441 IC50 (nM), NCI-H441 cell proliferation, 4 days, CellTiter-Glo;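 also: cell proliferation inhibition after four days measured by CellTiter-Glo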
[3] = target: GDP-bound NRAS wild-type protein (Homo sapiens, UniProt P01111); assay: Binding to NRAS by surface plasmon resonance (SPR), Single Cycle Kinetics; conditions: ratio of KD for GDP-bound NRAS wild-type protein to KD for KRAS, SPR
Sequence of GDP-bound NRAS wild-type protein (P01111 whole entry): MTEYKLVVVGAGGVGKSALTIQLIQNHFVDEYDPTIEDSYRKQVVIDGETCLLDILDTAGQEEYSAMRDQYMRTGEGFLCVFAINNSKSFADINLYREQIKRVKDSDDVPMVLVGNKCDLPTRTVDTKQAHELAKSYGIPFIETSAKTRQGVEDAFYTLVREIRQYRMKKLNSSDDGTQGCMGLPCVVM

[4] = target: GDP-bound KRAS wild-type protein (Homo sapiens, UniProt P01116); assay: Binding to KRAS by surface plasmon resonance (SPR), Single Cycle Kinetics; conditions: SPR, Single Cycle Kinetics, GDP-bound KRAS wild-type protein; read-out: KRAS KD
Sequence of GDP-bound KRAS wild-type protein (P01116 whole entry): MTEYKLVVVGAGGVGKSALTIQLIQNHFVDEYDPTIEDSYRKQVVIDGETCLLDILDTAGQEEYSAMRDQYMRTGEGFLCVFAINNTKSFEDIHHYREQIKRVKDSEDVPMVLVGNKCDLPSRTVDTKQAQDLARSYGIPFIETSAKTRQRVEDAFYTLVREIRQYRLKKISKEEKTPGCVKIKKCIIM

Sequence of GDP-bound HRAS wild-type protein (P01112 whole entry): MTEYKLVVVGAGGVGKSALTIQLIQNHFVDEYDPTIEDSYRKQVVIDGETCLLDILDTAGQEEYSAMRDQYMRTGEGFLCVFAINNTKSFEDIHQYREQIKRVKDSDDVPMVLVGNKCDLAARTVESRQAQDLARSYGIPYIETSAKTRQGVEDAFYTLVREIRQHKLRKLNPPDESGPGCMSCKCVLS

| Compound | IC50 [2] [nM] | Kd [4] [nM] | HRAS/KRAS (KD ratio) [1] | NRAS/KRAS (KD ratio) [3] |
| --- | --- | --- | --- | --- |
| CCCN1C(=O)C[C@@H](C(=O)N(C)C)N(C)C(=O)[C@H](C2CCCC2)N(C)C(=O)C2(CCC2)NC(=O)[C@@H]2C[C@@H](OCC)CN2C(=O)[C@H](CCc2cc(F)c(C(F)(F)F)c(F)c2)NC(=O)CN(C)C(=O)[C@H](Cc2ccc(C(F)(F)F)cc2)N2CC/C=C\C[C@@H](C2=O)N(C)C(=O)CNC(=O)[C@H]([C@@H](C)CC)NC(=O)[C@@H]1CC(C)C [PP1826] | 17.6 | 0.32 | A (a compound having 10 or more and less than 20 is denoted as A) | A (a compound having 10 or more and less than 20 is denoted as A) |
| CC[C@H](C)[C@@H]1NC(=O)[C@H](CC(F)F)N(C)C(=O)C[C@@H](C(=O)N(C)CC)N(C)C(=O)[C@H](C2CCCC2)N(C)C(=O)C2(CC(C)(C)C2)NC(=O)[C@@H]2C[C@@H](C)CN2C(=O)[C@H](CCc2ccc(C(F)(F)F)c(Cl)c2)NC(=O)CN(C)C(=O)[C@H](Cc2ccc(C)cc2)N2CC/C=C\C[C@@H](C2=O)N(C)C(=O)CN(C)C1=O [PP1837] | 15.6 | 0.2 | A (a compound having 10 or more and less than 20 is denoted as A) | A (a compound having 10 or more and less than 20 is denoted as A) |
| CC[C@H](C)[C@@H]1NC(=O)[C@H](CC(C)C)N(C)C(=O)C[C@@H](C(=O)N(C)C)N(C)C(=O)[C@H](C2CCCC2)N(C)C(=O)C2(CCC2)NC(=O)[C@@H]2C[C@@H](C)CN2C(=O)[C@H](CCc2ccc(C(F)(F)F)c(Cl)c2)NC(=O)CN(C)C(=O)[C@H](Cc2ccc(C)cc2)N2CC/C=C\C[C@@H](C2=O)N(C)C(=O)CN(C)C1=O [PP1854] | 5.2 | 0.096 | A (a compound having 10 or more and less than 20 is denoted as A) | A (a compound having 10 or more and less than 20 is denoted as A) |
| CC[C@H](C)[C@@H]1NC(=O)[C@H](CC)N(C)C(=O)C[C@@H](C(=O)N(C)CC)N(C)C(=O)[C@H](C2CCCC2)N(C)C(=O)C2(CCC2)NC(=O)[C@@H]2C[C@@H](C)CN2C(=O)[C@H](CCc2ccc(C(F)(F)F)c(OC)c2)NC(=O)CN(C)C(=O)[C@H](Cc2ccc(C)cc2)N2CC/C=C\C[C@@H](C2=O)N(C)C(=O)CN(C)C1=O [PP1855] | 17.7 | 0.19 | A (a compound having 10 or more and less than 20 is denoted as A) | AA (a compound having 20 or more is denoted as AA) |
| CC[C@H](C)[C@@H]1NC(=O)[C@H](CC)N(C)C(=O)C[C@@H](C(=O)N(C)C)N(C)C(=O)[C@H](C2CCCC2)N(C)C(=O)C2(CC(C)(C)C2)NC(=O)[C@@H]2C[C@H](C)CN2C(=O)[C@H](CCc2cc(F)c(C(F)(F)F)c(F)c2)NC(=O)CN(C)C(=O)[C@H](Cc2ccc(C)cc2)N2CC/C=C\C[C@@H](C2=O)N(C)C(=O)CN(C)C1=O [PP1856] | 1.4 | 0.11 | A (a compound having 10 or more and less than 20 is denoted as A) | A (a compound having 10 or more and less than 20 is denoted as A) |
| CC[C@H](C)[C@@H]1NC(=O)[C@H](CC2CC2)N(C)C(=O)C[C@@H](C(=O)N(C)C)N(C)C(=O)[C@H](C2CCCC2)N(C)C(=O)C2(CCC2)NC(=O)[C@@H]2C[C@@H](C)CN2C(=O)[C@H](CCc2ccc(C(F)(F)F)c(OC)c2)NC(=O)CN(C)C(=O)[C@H](Cc2ccc(C)cc2)N2CC/C=C\C[C@@H](C2=O)N(C)C(=O)CN(C)C1=O [PP1863] | 88.8 | 0.13 | A (a compound having 10 or more and less than 20 is denoted as A) | A (a compound having 10 or more and less than 20 is denoted as A) |
| CC[C@H](C)[C@@H]1NC(=O)[C@H](CC(C)C)N(C)C(=O)C[C@@H](C(=O)N(C)C)N(C)C(=O)[C@H](C2CCCC2)N(C)C(=O)C2(CCC2)NC(=O)[C@@H]2C[C@H](C)CN2C(=O)[C@H](CCc2cc(F)c(C(F)(F)F)c(F)c2)NC(=O)CN(C)C(=O)[C@H](Cc2ccc(C)cc2)N2CC/C=C\C[C@@H](C2=O)N(C)C(=O)CN(C)C1=O [PP1864] | 10.2 | 0.064 | B (a compound having 3 or more and less than 10 is denoted as B) | A (a compound having 10 or more and less than 20 is denoted as A) |
| CC[C@H](C)[C@@H]1NC(=O)[C@H](CC(C)C)N(C)C(=O)C[C@@H](C(=O)N(C)C)N(C)C(=O)[C@H](C2CCCC2)N(C)C(=O)C2(CCC2)NC(=O)[C@@H]2C[C@@H](C)CN2C(=O)[C@H](CCc2cc(F)c(C(F)(F)F)c(F)c2)NC(=O)CN(C)C(=O)[C@H](Cc2ccc(C)cc2)N2CC/C=C\C[C@@H](C2=O)N(C)C(=O)CN(C)C1=O [PP1866] | 11.1 | 0.093 | B (a compound having 3 or more and less than 10 is denoted as B) | A (a compound having 10 or more and less than 20 is denoted as A) |
| CC[C@H](C)[C@@H]1NC(=O)[C@H](CC(C)C)N(C)C(=O)C[C@@H](C(=O)N(C)C)N(C)C(=O)[C@H](C2CCCC2)N(C)C(=O)C2(CCC2)NC(=O)[C@@H]2C[C@@H](C)CN2C(=O)[C@H](CCc2ccc(C(F)(F)F)c(OC)c2)NC(=O)CN(C)C(=O)[C@H](Cc2ccc(C)cc2)N2CC/C=C\C[C@@H](C2=O)N(C)C(=O)CN(C)C1=O [PP1867] | 47.8 | 0.17 | B (a compound having 3 or more and less than 10 is denoted as B) | A (a compound having 10 or more and less than 20 is denoted as A) |
| CCO[C@@H]1C[C@H]2C(=O)NC3(CCC3)C(=O)N(C)[C@@H](C3CCCC3)C(=O)N(C)[C@H](C(=O)N(C)CC)CC(=O)N(C)[C@@H](CC)C(=O)N[C@@H]([C@@H](C)CC)C(=O)N(C)CC(=O)N(C)[C@H]3C/C=C\CCN(C3=O)[C@@H](Cc3ccc(C)cc3)C(=O)N(C)CC(=O)N[C@@H](CCc3ccc(C(F)(F)F)c(OC)c3)C(=O)N2C1 [PP1869] | 36.4 | 0.13 | A (a compound having 10 or more and less than 20 is denoted as A) | A (a compound having 10 or more and less than 20 is denoted as A) |

Continued, in another order:

| IC50 [2] [nM] | Kd [4] [nM] | Compound | HRAS/KRAS (KD ratio) [1] | NRAS/KRAS (KD ratio) [3] |
| --- | --- | --- | --- | --- |
| 10.7 | 0.1 | CC[C@H](C)[C@@H]1NC(=O)[C@H](CC)N(C)C(=O)C[C@@H](C(=O)N(C)C)N(C)C(=O)[C@H](C2CCCC2)N(C)C(=O)C2(CC(C)(C)C2)NC(=O)[C@@H]2C[C@H](C)CN2C(=O)[C@H](CCc2ccc(C(F)(F)F)c(OC)c2)NC(=O)CN(C)C(=O)[C@H](Cc2ccc(C)cc2)N2CC/C=C\C[C@@H](C2=O)N(C)C(=O)CN(C)C1=O [PP1836] | B (a compound having 3 or more and less than 10 is denoted as B) | A (a compound having 10 or more and less than 20 is denoted as A) |
| 20 | 0.1 | CC[C@H](C)[C@@H]1NC(=O)[C@H](CC)N(C)C(=O)C[C@@H](C(=O)N(C)C)N(C)C(=O)[C@H](C2CCCC2)N(C)C(=O)C2(CC(C)(C)C2)NC(=O)[C@@H]2C[C@@H](C)CN2C(=O)[C@H](CCc2ccc(C(F)(F)F)c(OC)c2)NC(=O)CN(C)C(=O)[C@H](Cc2ccc(C)cc2)N2CC/C=C\C[C@@H](C2=O)N(C)C(=O)CN(C)C1=O [PP1838] | A (a compound having 10 or more and less than 20 is denoted as A) | A (a compound having 10 or more and less than 20 is denoted as A) |
| 24.3 | 0.31 | CC[C@H](C)[C@@H]1NC(=O)[C@H](CC)N(C)C(=O)C[C@@H](C(=O)N(CC)CC)N(C)C(=O)[C@H](C2CCCC2)N(C)C(=O)C2(CC(C)(C)C2)NC(=O)[C@@H]2C[C@H](C)CN2C(=O)[C@H](CCc2ccc(C(F)(F)F)c(OC)c2)NC(=O)CN(C)C(=O)[C@H](Cc2ccc(C)cc2)N2CC/C=C\C[C@@H](C2=O)N(C)C(=O)CN(C)C1=O [PP1839] | B (a compound having 3 or more and less than 10 is denoted as B) | A (a compound having 10 or more and less than 20 is denoted as A) |
| 24.3 | 0.38 | CC[C@H](C)[C@@H]1NC(=O)[C@H](CC)N(C)C(=O)C[C@@H](C(=O)N(CC)CC)N(C)C(=O)[C@H](C2CCCC2)N(C)C(=O)C2(CC(C)(C)C2)NC(=O)[C@@H]2C[C@@H](C)CN2C(=O)[C@H](CCc2ccc(C(F)(F)F)c(OC)c2)NC(=O)CN(C)C(=O)[C@H](Cc2ccc(C)cc2)N2CC/C=C\C[C@@H](C2=O)N(C)C(=O)CN(C)C1=O [PP1841] | A (a compound having 10 or more and less than 20 is denoted as A) | AA (a compound having 20 or more is denoted as AA) |
| 12.3 | 0.07 | CC[C@H](C)[C@@H]1NC(=O)[C@H](CC)N(C)C(=O)C[C@@H](C(=O)N(C)C)N(C)C(=O)[C@H](C2CCCC2)N(C)C(=O)C2(CC(C)(C)C2)NC(=O)[C@@H]2C[C@H](C)CN2C(=O)[C@H](CCc2ccc(C(F)(F)F)c(Cl)c2)NC(=O)CN(C)C(=O)[C@H](Cc2ccc(C)cc2)N2CC/C=C\C[C@@H](C2=O)N(C)C(=O)CN(C)C1=O [PP1844] | B (a compound having 3 or more and less than 10 is denoted as B) | A (a compound having 10 or more and less than 20 is denoted as A) |
| 10.7 | 0.087 | CC[C@H](C)[C@@H]1NC(=O)[C@H](CC)N(C)C(=O)C[C@@H](C(=O)N(C)CC)N(C)C(=O)[C@H](C2CCCC2)N(C)C(=O)C2(CC(C)(C)C2)NC(=O)[C@@H]2C[C@H](C)CN2C(=O)[C@H](CCc2ccc(C(F)(F)F)c(OC)c2)NC(=O)CN(C)C(=O)[C@H](Cc2ccc(C)cc2)N2CC/C=C\C[C@@H](C2=O)N(C)C(=O)CN(C)C1=O [PP1868] | B (a compound having 3 or more and less than 10 is denoted as B) | A (a compound having 10 or more and less than 20 is denoted as A) |
